Patent US8961958B2, “High concentration self-microemulsifying coenzyme Q10 preparations for nutritional use” (Bioavailability, Inc, priority 2004, dated 2015)

Experiments:
[1] = cited from earlier work
[2] = Solubility of CoQ10 in solvents; format: physicochemical
Procedure: The speed at which the CoQ10 dissolves into the solvent is primarily a function of the temperature of the solvent and its viscosity, but the base composition that is prepared at a temperature above […] will have the same properties as a base prepared at a temperature of 37° C. If CoQ10 crystals are added to solvents hot enough to melt CoQ10 (48° C. to about 52° C.) the molten CoQ10 mixes and dissolves almost immediately. On the other hand, under room temperature conditions, several hours of stirring may be required to obtain even a 5% CoQ10 concentration in a highly viscous solvent such as a triglyceride oil. By contrast, a low viscosity solvent, such as sweet orange oil can dissolve a 30% CoQ10 concentration under room temperature almost immediately. The fact that CoQ10 melts at about 48° C. to about 52° C. and then is soluble at high concentrations in a wide range of only modestly hydrophobic media, such as ethanol, is distracting to the design of high concentration CoQ10 solutions at room temperature or body temperature. Many different high concentration solutions of CoQ10 which form readily at the high temperatures of molten CoQ10 are not stable, or are meta-stable, at body temperature.
Primary considerations in the choice of an acceptable water-immiscible solvent are somewhat similar to those in choosing an acceptable surfactant. In addition to the basic requirements of bio-compatibility, low toxicity and good taste and odor, the solvent must have a melting point at or about the temperature of a human and most other mammals (about 37° C.), and be able to dissolve a substantial amount of CoQ10 below body temperature. […] Once such a solvent is identified, the saturation capacity of the solvent with CoQ10 at body temperature is then determined, and a reduction in the concentration of CoQ10 is made to ensure that mixture of the CoQ10 and solvent, along with the more hydrophilic surfactant, will not cause CoQ10 precipitation. […]

In the case of COC1=C(OC)C(=O)C(C/C=C(\C)CC/C=C(\C)CC/C=C(\C)CC/C=C(\C)CC/C=C(\C)CC/C=C(\C)CC/C=C(\C)CC/C=C(\C)CC/C=C(\C)CCC=C(C)C)=C(C)C1=O [CoQ10, coenzyme Q10], the “solubility of CoQ10 in water” value [1] is given as “nearly insoluble in water”, the “thermodynamically stable concentration of CoQ10 in sweet orange oil” value ([2]; sweet orange oil, body temperature) is given as “up to 55%” and the “CoQ10 concentration dissolved in sweet orange oil” value ([2]; sweet orange oil, room temperature, almost immediately) is given as 30%. The “CoQ10 dissolvable in triglyceride oils” value ([2]; triglyceride oils, body temperature) was ≤ 5 % by weight.
